# Tested on: HIV-1
# Assay: HIV infectivity assay (Table 2, strain not given)
# Assay type: cell-based
# Settings: Human immunodeficiency virus 1, read-out: Activity Level
# Experimental: (§1) Compounds were profiled against two HIV-1 viruses, the M-tropic (CCR5 utilizing) Ba-L strain and the T-tropic (CXCR4 utilizing) IIIB strain. Both viruses were propagated in human peripheral blood lymphocytes. Compounds were tested for there ability to block infection of the HOS cell line (expressing hCXCR4/hCCR5/hCD4/pHIV-LTR-luciferase) by either HIV-1 Ba-L or HIV-1, IIIB. Compound cytotoxicity was also examined in the absence of virus addition.
# (§2) HOS cells (expressing hCXCR4/hCCR5/hCD4/pHIV-LTR-luciferase) were harvested and diluted in Dulbeccos modified Eagles media supplemented with 2% FCS and non-essential amino acid to a concentration of 60,000 cells/ml. The cells were plated into 96-well plates (100 ul per well) and the plates were placed in a tissue culture incubator (37° C.; 5% CO2/95% air) for a period of 24 h.
# Subsequently, 50 ul of the desired drug solution (4 times the final concentration) was added to each well and the plates were returned to the tissue culture incubator (37° C.; 5% CO2/95% air) for 1 h. Following this incubation 50 ul of diluted virus was added to each well (approximately 2 million RLU per well of virus). The plates were returned to the tissue culture incubator (37° C.; 5% CO2/95% air) and were incubated for a further 96 h.
# Following this incubation the endpoint for the virally infected cultures was quantified following addition of Steady-Glo Luciferase assay system reagent (Promega, Madison, Wis.). Cell viability or non-infected cultures was measured using a CellTiter-Glo luminescent cell viability assay system (Promega, Madison, Wis.). All luminescent readouts are performed on a Topcount luminescence detector (Packard, Meridien, Conn.).
# as §1, with “Ba-L was” for “Both viruses were”, “either peripheral blood lymphocytes or SupT1/CCR5+/CXCR4+ cells. IIIB was propagated in” for “human”, “their” for “there”
# as §2, with “FCS” for “FCS and non-essential amino acid”, “120,000” for “60,000”, “(50 μl” for “(100 ul”, “(370°” for “(37°”
# Subsequently, 50 μl of the desired drug solution (2 times the final concentration) was added to each well and the plates were returned to the tissue culture incubator (370° C.; 5% CO2/95% air) for 1 h. Following this incubation, 60 μl of diluted virus (4 times the final concentration) was added to 60 μl of 2× the final desired concentration of the compound and 100 μl of this compound/virus mix was added to each well (approximately 2 million RLU per well of virus). The plates were returned to the tissue culture incubator (370° C.; 5% CO2/95% air) and were incubated for a further 96 h.
row,SMILES,IC50
1,"OCCN1CCCN(c2cccc3nc(CN4CCC[C@H]5CCc6cccnc6[C@H]54)cn23)CC1 [Example 108, 2-(4-{2-[(4aR,10bS)-3,4,4a,5,6,10b-hexahydro-1,10-phenanthrolin-1(2H)-ylmethyl]imidazo[1,2-a]pyridin-5-yl}hexahydro-1H-1,4-diazepin-1-yl)ethanol]",< 100 nM
2,"CN1CCN(c2cccc3nc(CN4CCC[C@H]5CCc6cccnc6[C@H]54)c(CN4CCCCC4)n23)CC1 [Example 57, (4aR,10bS)-1-{[5-(4-methyl-1-piperazinyl)-3-(1-piperidinylmethyl)imidazo[1,2-a]pyridin-2-yl]methyl}-1,2,3,4,4a,5,6,10b-octahydro-1,10-phenanthroline]",< 100 nM
3,"CN(C)CCN(C)c1cccc2nc(CN3CCC[C@H]4CCc5cccnc5[C@H]43)cn12 [Example 70, N-{2-[(4aR,10bS)-3,4,4a,5,6,10b-hexahydro-1,10-phenanthrolin-1(2H)-ylmethyl]imidazo[1,2-a]pyridin-5-yl}-N,N′,N′-trimethyl-1,2-ethanediamine]",< 100 nM
4,"CN(C)CCNc1cccc2nc(CN3CCC[C@H]4CCc5cccnc5[C@H]43)cn12 [Example 90, N′-{2-[(4aR,10bS)-3,4,4a,5,6,10b-hexahydro-1,10-phenanthrolin-1(2H)-ylmethyl]imidazo[1,2-a]pyridin-5-yl}-N,N-dimethyl-1,2-ethanediamine]",100 to 500 nM
5,"CN(C)CC1CCN(c2cccc3nc(CN4CCC[C@H]5CCc6cccnc6[C@H]54)cn23)CC1 [Example 86, [(1-{2-[(4aR,10bS)-3,4,4a,5,6,10b-hexahydro-1,10-phenanthrolin-1(2H)-ylmethyl]imidazo[1,2-a]pyridin-5-yl}-4-piperidinyl)methyl]dimethylamine]",< 100 nM
6,"c1ccc(Cn2ccnc2Cn2c(CN3CCC[C@@H]4CCc5cccnc5[C@H]43)nc3ccccc32)cc1 (relative stereo) [Example 46, (trans) 1-[(1-{[1-(phenylmethyl)-1H-imidazol-2-yl]methyl}-1H-benzimidazol-2-yl)methyl]-1,2,3,4,4a,5,6,10b-octahydro-1,10-phenanthroline]",500 to 10000 nM
7,"NCCCCn1c(CN2CCC[C@@H]3CCc4cccnc4[C@H]32)nc2ccccc21 (relative stereo) [Example 37, (trans) 4-[2-(3,4,4a,5,6,10b-hexahydro-1,10-phenanthrolin-1(2H)-ylmethyl)-1H-benzimidazol-1-yl]-1-butanamine]",< 100 nM
8,"CN1CCN(c2cccc3nc(CN4CCC[C@H]5CCCc6cccnc6[C@H]54)cn23)CC1 [Example 124, (4aR,11bS)-1-{[5-(4-methyl-1-piperazinyl)imidazo[1,2-a]pyridin-2-yl]methyl}-2,3,4,4a,5,6,7,11b-octahydro-1H-pyrido[3′,2′:6,7]cyclohepta[1,2-b]pyridine]",< 100 nM
9,"C[C@@H]1CN[C@@H](C)CN1c1cccc2nc(CN3CCC[C@H]4CCc5cccnc5[C@H]43)cn12 [Example 79, (4aR,10bS)-1-({5-[(2R,5S)-2,5-dimethyl-1-piperazinyl]imidazo[1,2-a]pyridin-2-yl}methyl)-1,2,3,4,4a,5,6,10b-octahydro-1,10-phenanthroline]",< 100 nM
10,"CN1CCC(N(C)c2cccc3nc(CN4CCC[C@H]5CCc6cccnc6[C@H]54)cn23)C1 (stereo partly drawn) [Example 75, 2-[(4aR,10bS)-3,4,4a,5,6,10b-hexahydro-1,10-phenanthrolin-1(2H)-ylmethyl]-N-methyl-N-(1-methyl-3-pyrrolidinyl)imidazo[1,2-a]pyridin-5-amine]",< 100 nM
11,"CN1CCCC1CCNc1cccc2nc(CN3CCC[C@H]4CCc5cccnc5[C@H]43)cn12 (stereo partly drawn) [Example 104, 2-[(4aR,10bS)-3,4,4a,5,6,10b-hexahydro-1,10-phenanthrolin-1(2H)-ylmethyl]-N-[2-(1-methyl-2-pyrrolidinyl)ethyl]imidazo[1,2-a]pyridin-5-amine]",< 100 nM
12,"CN1CCN(c2cccc3nc(CN4CCC[C@H]5CCc6cccnc6[C@H]54)c(CO)n23)CC1 [Example 54, [2-[(4aR,10bS)-3,4,4a,5,6,10b-hexahydro-1,10-phenanthrolin-1(2H)-ylmethyl]-5-(4-methyl-1-piperazinyl)imidazo[1,2-a]pyridin-3-yl]methanol]",< 100 nM
13,"CN(C)C1CCN(c2cccc3nc(CN4CCC[C@H]5CCc6cccnc6[C@H]54)cn23)CC1 [Example 67, 1-{2-[(4aR,10bS)-3,4,4a,5,6,10b-hexahydro-1,10-phenanthrolin-1(2H)-ylmethyl]imidazo[1,2-a]pyridin-5-yl}-N,N-dimethyl-4-piperidinamine]",< 100 nM
14,"NCCN1CCN(c2cccc3nc(CN4CCC[C@H]5CCc6cccnc6[C@H]54)cn23)CC1 [Example 92, [2-(4-{2-[(4aR,10bS)-3,4,4a,5,6,10b-hexahydro-1,10-Phenanthrolin-1(2H)-ylmethyl]imidazo[1,2-a]pyridin-5-yl}-1-piperazinyl)ethyl]amine]",< 100 nM
15,"CN(C)C1CCN(c2cccc3nc(CN4CCC[C@H]5CCc6cccnc6[C@H]54)cn23)C1 (stereo partly drawn) [Example 83, 1-{2-[(4aR,10bS)-3,4,4a,5,6,10b-hexahydro-1,10-phenanthrolin-1(2H)-ylmethyl]imidazo[1,2-a]pyridin-5-yl}-N,N-dimethyl-3-pyrrolidinamine]",< 100 nM
16,"CN(C)CCCn1c(CN2CCC[C@H]3CCc4cccnc4[C@H]32)nc2ccccc21 (racemic) [Example 41, (cis) 3-[2-(3,4,4a,5,6,10b-hexahydro-1,10-phenanthrolin-1(2H)-ylmethyl)-1H-benzimidazol-1-yl]-N,N-dimethyl-1-propanamine]",< 100 nM
17,"c1cnc2c(c1)CC[C@@H]1CCCN(Cc3cn4c(N5CCC(N6CCCCC6)CC5)cccc4n3)[C@H]21 [Example 71, (4aR,10bS)-1-{[5-(1,4′-bipiperidin-1′-yl)imidazo[1,2-a]pyridin-2-yl]methyl}-1,2,3,4,4a,5,6,10b-octahydro-1,10-phenanthroline]",< 100 nM
18,"c1cnc2c(c1)CC[C@@H]1CCCN(Cc3cn4c(N5CCC(C6CCN(c7cccc8nc(CC9CCC[C@H]%10CCc%11cccnc%11[C@@H]9%10)cn78)CC6)CC5)cccc4n3)[C@H]21 (stereo partly drawn) [Example 76b, (4aR,10bS)-1-{[5-(1′-{2-[(6aS,10aR)-5,6,6a,7,8,9,10,10a-octahydrobenzo[h]quinolin-10-ylmethyl]imidazo[1,2-a]pyridin-5-yl}-4,4′-bipiperidin-1-yl)imidazo[1,2-a]pyridin-2-yl]methyl}-1,2,3,4,4a,5,6,10b-octahydro-1,10-phenanthroline]",500 to 10000 nM
19,"CN1CCCN(c2cccc3nc(CN4CCC[C@H]5CCc6cccnc6[C@H]54)cn23)CC1 [Example 93, (4aR,10bS)-1-{[5-(4-methylhexahydro-1H-1,4-diazepin-1-yl)imidazo[1,2-a]pyridin-2-yl]methyl}-1,2,3,4,4a,5,6,10b-octahydro-1,10-phenanthroline]",< 100 nM
20,"O=C(CN1CCN(c2cccc3nc(CN4CCC[C@H]5CCc6cccnc6[C@H]54)cn23)CC1)N1CCCC1 [Example 101, (4aR,10bS)-1-[(5-{4-[2-oxo-2-(1-pyrrolidinyl)ethyl]-1-piperazinyl}imidazo[1,2-a]pyridin-2-yl)methyl]-1,2,3,4,4a,5,6,10b-octahydro-1,10-phenanthroline]",< 100 nM
21,"CN(C)[C@H]1CCN(c2cccc3nc(CN4CCC[C@H]5CCc6cccnc6[C@H]54)cn23)C1 [Example 100, (3S)-1-{2-[(4aR,10bS)-3,4,4a,5,6,10b-hexahydro-1,10-phenanthrolin-1(2H)-ylmethyl]imidazo[1,2-a]pyridin-5-yl}-N,N-dimethyl-3-pyrrolidinamine]",< 100 nM
22,"NCCCCCn1c(CN2CCC[C@H]3CCc4cccnc4[C@H]32)nc2ccccc21 (racemic) [Example 39, (cis) 5-[2-(3,4,4a,5,6,10b-hexahydro-1,10-phenanthrolin-1(2H)-ylmethyl)-1H-benzimidazol-1-yl]-1-pentanamine]",100 to 500 nM
